Test results taken from patent US20100179122A1 (priority 2005, published 2010).
Read-outs that look alike come from different tables or passages of the source.

How the values were obtained:
[1] = target: T1, mutant HIV reverse transcriptase (Y181C mutation) (Human immunodeficiency virus type 1 group M subtype B, UniProt P04585, Y768C); test: Analogous RT inhibition assay, Y181C mutant; assay type: biochemical; conditions: reverse transcriptase with Y181C mutation; tested up to 20 micromolar; read-out: IC50, Y181C mutant assay
T1 construct: mutations that occur in the reverse transcriptase segment of the pol gene; made in house
Description: (§1) 100 μL reaction mixtures were initiated with a combination of primer-template substrate (10 nM final concentration) and dNTPs (0.6 μM dNTPs, 0.75 μM [^3H]-dGTP). The heterodimeric nucleic acid substrate was generated by annealing the DNA primer pD500 (described in Shaw-Reid et al., J. Biol. Chem., 278: 2777-2780; obtained from Integrated DNA Technologies) to t500, a 500 nucleotide RNA template created by in vitro transcription (see Shaw-Reid et al., J. Biol. Chem., 278: 2777-2780). After 1 hour incubation at 37° C., reactions were quenched by 10 μl, streptavidin scintillation proximity assay beads (10 mg/mL, from Amersham Biosciences) in 0.5 M EDTA, pH 8. Microtiter plates were incubated an additional 10 minutes at 37° C. prior to quantification via Topcount (Packard).
(§2) Analogous assays were conducted substituting mutant HIV strains to determine the […] inhibition of compounds of the present invention against mutant HIV reverse transcriptase. In one strain the reverse transcriptase has the Y181C mutation and in the other strain the reverse transcriptase has the K103N mutation. The mutations were generated with the […] site-directed mutagenesis kit (Stratagene). […] The compounds set forth in the other Examples were not tested in the Y181C assay. […] The compounds set forth in the other Examples were not tested in the K103N assay.

[2] = target: T2, mutant HIV reverse transcriptase (K103N mutation) (Human immunodeficiency virus type 1 group M subtype B, UniProt P04585, K690N); test: Analogous RT inhibition assay, K103N mutant; assay type: biochemical
T2 construct: mutations that occur in the reverse transcriptase segment of the pol gene; made in house
Description: as §1, §2

[3] = tested on: acute HIV infection of T-lymphoid cells; test: Assay for inhibition of HIV replication (spread assay); assay type: cell-based; conditions: read-out: IC95, spread assay
Description: An assay for the inhibition of acute HIV infection of T-lymphoid cells (alternatively referred to herein as the “spread assay”) was conducted in accordance with Vacca, J. P. et al., Proc. Natl. Acad. Sci. USA 1994, 91: 4096. […] The compounds set forth in the other Examples were not tested in the spread assay.

[4] = reverse transcriptase with K103N mutation, tested up to 20 micromolar, read-out: IC50, K103N mutant assay
[5] = Human immunodeficiency virus 1, inhibition of acute HIV infection of T-lymphoid cells

Row | SMILES | IC50 [1] [nM] | IC50 [2, 4] [nM] | IC95 [3, 5] [nM] | IC50 [2] [nM] | IC95 ([3]; Human immunodeficiency virus 1, T-lymphoid) [nM]
1 | O=C(Nc1ccccn1)Nc1[nH]c2ccc(Br)cc2c1S(=O)(=O)N1CCCC1 [Example 75, N-[5-bromo-3-(pyrrolidin-1-ylsulfonyl)-1H-indol-2-yl]-N′-pyridin-2-ylurea] | 1000 to 20000 | < 1000 | < 1000 | – | –
2 | O=C(Nc1[nH]c2ccc(Br)cc2c1S(=O)(=O)N1CCCC1)Nc1c(F)cccc1F [Example 77, N-[5-bromo-3-(pyrrolidin-1-ylsulfonyl)-1H-indol-2-yl]-N′-(2,6-difluorophenyl)urea] | 1000 to 20000 | < 1000 | < 1000 | – | –
3 | O=C(NCc1ccncc1)Nc1[nH]c2ccc(Br)cc2c1S(=O)(=O)N1CCCC1 [Example 86, N-[5-bromo-3-(pyrrolidin-1-ylsulfonyl)-1H-indol-2-yl]-N′-(pyridin-4-ylmethyl)urea] | > 20000 | < 1000 | < 1000 | – | –
4 | NC(=O)Nc1[nH]c2ccc(Br)cc2c1S(=O)(=O)N1CCCC1 [Example 89, N-[5-bromo-3-(pyrrolidin-1-ylsulfonyl)-1H-indol-2-yl]urea] | > 20000 | – | < 1000 | < 1000 | –
5 | O=C(NCCCc1ccccc1)Nc1[nH]c2ccc(Br)cc2c1S(=O)(=O)N1CCCC1 [Example 90, N-[5-bromo-3-(pyrrolidin-1-ylsulfonyl)-1H-indol-2-yl]-N′-(3-phenylpropyl)urea] | > 20000 | – | – | < 1000 | 1000 to 10000
